# From US10597388B2, “Pyridazinone herbicides” (FMC CORPORATION, priority 2014, dated 2020)
# Tests used:
# Test in all cases: Test C greenhouse herbicide test, pre- and postemergence
# Type in all cases: in vivo
# [1] = tested on: wheat (winter wheat, Triticum aestivum); settings: Preemergence; for Plant response rating, Wheat: scale 0 to 100, 0 is no effect, 100 is complete control
# How it was run: (§1)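 Visual 0–100 injury score (100 = complete control) taken against untreated controls after 13–15 d in greenhouse. Test chemicals, formulated in solvent plus surfactant, applied preemergence to seeds in loam–sand soil or postemergence to 1- to 4-leaf plants (2–18 cm).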
# [2] = tested on: crabgrass, large (large crabgrass, Digitaria sanguinalis); settings: Preemergence; for Plant response rating, Crabgrass, Large: scale 0 to 100, 0 is no effect, 100 is complete control
# How it was run: as §1
# [3] = tested on: ragweed (common ragweed, Ambrosia elatior); settings: Preemergence; for Plant response rating, Ragweed: scale 0 to 100, 0 is no effect, 100 is complete control
# How it was run: as §1
# [4] = tested on: galium (catchweed bedstraw, Galium aparine); settings: Preemergence; for Plant response rating, Galium: scale 0 to 100, 0 is no effect, 100 is complete control
# How it was run: as §1
# [5] = tested on: waterhemp (common waterhemp, Amaranthus rudis); settings: Preemergence; for Plant response rating, Waterhemp: scale 0 to 100, 0 is no effect, 100 is complete control
# How it was run: as §1
# [6] = tested on: johnsongrass (Sorghum halepense); settings: Preemergence; for Plant response rating, Johnsongrass: scale 0 to 100, 0 is no effect, 100 is complete control
# How it was run: as §1
# [7] = tested on: lambsquarters (Chenopodium album); settings: Preemergence; for Plant response rating, Lambsquarters: scale 0 to 100, 0 is no effect, 100 is complete control
# How it was run: as §1
# [8] = tested on: soybean (Glycine max); settings: Preemergence; for Plant response rating, Soybean: scale 0 to 100, 0 is no effect, 100 is complete control
# How it was run: as §1
# [9] = tested on: barnyardgrass (Echinochloa crus-galli); settings: Preemergence; for Plant response rating, Barnyardgrass: scale 0 to 100, 0 is no effect, 100 is complete control
# How it was run: as §1
# [10] = tested on: nutsedge, yellow (yellow nutsedge, Cyperus esculentus); settings: Preemergence; for Plant response rating, Nutsedge, Yellow: scale 0 to 100, 0 is no effect, 100 is complete control
# How it was run: as §1
# [11] = tested on: oilseed rape (Brassica napus); settings: Preemergence; for Plant response rating, Oilseed Rape: scale 0 to 100, 0 is no effect, 100 is complete control
# How it was run: as §1
# [12] = tested on: foxtail, giant (giant foxtail, Setaria faberii); settings: Preemergence; for Plant response rating, Foxtail, Giant: scale 0 to 100, 0 is no effect, 100 is complete control
# How it was run: as §1
# [13] = 250 g ai/ha, scale 0 to 100, 0 no effect, 100 complete control
structure (smiles),measurement,setting,value
CCC(=O)Oc1c(OC)nn(C)c(=O)c1-c1c(C)sc2ccc(Cl)cc12 [Compound 131],"Plant response rating, Wheat",[1]; 31 g ai/ha,0
same,"Plant response rating, Wheat",[1]; 62 g ai/ha,0
same,"Plant response rating, Wheat",[1]; 125 g ai/ha,20
same,Wheat plant response rating,[1]; [13],20
same,"Plant response rating, Crabgrass, Large",[2]; 31 g ai/ha,0
same,"Plant response rating, Crabgrass, Large",[2]; 62 g ai/ha,20
same,"Plant response rating, Crabgrass, Large",[2]; 125 g ai/ha,60
same,"Crabgrass, Large plant response rating",[2]; [13],80
same,"Plant response rating, Ragweed",[3]; 31 g ai/ha,65
same,"Plant response rating, Ragweed",[3]; 62 g ai/ha,95
same,"Plant response rating, Ragweed",[3]; 125 g ai/ha,98
same,Ragweed plant response rating,[3]; [13],98
same,"Plant response rating, Galium",[4]; 31 g ai/ha,85
same,"Plant response rating, Galium",[4]; 62 g ai/ha,90
same,"Plant response rating, Galium",[4]; 125 g ai/ha,95
same,Galium plant response rating,[4]; [13],95
same,"Plant response rating, Waterhemp",[5]; 31 g ai/ha,95
same,"Plant response rating, Waterhemp",[5]; 62 g ai/ha,98
same,"Plant response rating, Waterhemp",[5]; 125 g ai/ha,98
same,Waterhemp plant response rating,[5]; [13],100
same,"Plant response rating, Johnsongrass",[6]; 31 g ai/ha,0
same,"Plant response rating, Johnsongrass",[6]; 62 g ai/ha,0
same,"Plant response rating, Johnsongrass",[6]; 125 g ai/ha,0
same,Johnsongrass plant response rating,[6]; [13],20
same,"Plant response rating, Lambsquarters",[7]; 31 g ai/ha,60
same,"Plant response rating, Lambsquarters",[7]; 62 g ai/ha,70
same,"Plant response rating, Lambsquarters",[7]; 125 g ai/ha,85
same,Lambsquarters plant response rating,[7]; [13],95
same,"Plant response rating, Soybean",[8]; 31 g ai/ha,0
same,"Plant response rating, Soybean",[8]; 62 g ai/ha,0
same,"Plant response rating, Soybean",[8]; 125 g ai/ha,0
same,Soybean plant response rating,[8]; [13],0
same,"Plant response rating, Barnyardgrass",[9]; 31 g ai/ha,0
same,"Plant response rating, Barnyardgrass",[9]; 62 g ai/ha,0
same,"Plant response rating, Barnyardgrass",[9]; 125 g ai/ha,10
same,Barnyardgrass plant response rating,[9]; [13],35
same,"Plant response rating, Nutsedge, Yellow",[10]; 31 g ai/ha,10
same,"Plant response rating, Nutsedge, Yellow",[10]; 62 g ai/ha,35
same,"Plant response rating, Nutsedge, Yellow",[10]; 125 g ai/ha,65
same,"Nutsedge, Yellow plant response rating",[10]; [13],75
same,"Plant response rating, Oilseed Rape",[11]; 31 g ai/ha,20
same,"Plant response rating, Oilseed Rape",[11]; 62 g ai/ha,40
same,"Plant response rating, Oilseed Rape",[11]; 125 g ai/ha,85
same,Oilseed Rape plant response rating,[11]; [13],80
same,"Plant response rating, Foxtail, Giant",[12]; 31 g ai/ha,35
same,"Plant response rating, Foxtail, Giant",[12]; 62 g ai/ha,85
same,"Plant response rating, Foxtail, Giant",[12]; 125 g ai/ha,90
same,"Foxtail, Giant plant response rating",[12]; [13],98
